Earlier results as cited in patent US6630442B1, “Reparatives for chemosurgery and laser (thermal) therapy” (priority 1997, dated 2003).

What was measured:
[1] = test system: acute damage to the skin by sunburn induced by ultraviolet irradiation
[2] = test system: psoriasis
[3] = test system: lipid peroxidation in tissues; details: tissues of vitamin E deficient chicks
[4] = test system: skin damage by ultraviolet irradiation
[5] = test system: human leukocytes
[6] = test system: partial thickness burns or split thickness epidermal burns; details: mixed with topical creams, applied twice daily
[7] = test system: granulating wounds; details: applied to granulating wounds
[8] = test system: cells; details: in vitro

C[Se]CC[C@H](N)C(=O)O [selenomethionine]
protection against acute UV damage to the skin, measured by the minimal erythema dose ([1]; eight women, topical lotion 0.002%, 0.02% and 0.05%, solar ultraviolet simulator): effective in protecting against acute UV damage to the skin | plasma levels of selenium ([1]; volunteers after topical selenomethionine): remained unchanged | number of CD4+ T-cells in the reticular dermis of psoriatic lesions ([2]; human, in vivo): statistically significant increase | skin levels of selenium dependent glutathione peroxidase ([2]; normal and psoriatic skin): unchanged | increase in blood selenium post treatment ([2]; psoriasis patients with normal pretreatment selenium blood levels): 40% | in vivo lipid peroxidation [3]: inhibits in vivo lipid peroxidation | skin damage by ultraviolet irradiation (inflammation and pigmentation) ([4]; mice treated with selenomethionine): significantly less skin damage by ultraviolet irradiation | onset and incidence of skin cancers ([4]; mice treated with selenomethionine, UV irradiation): later onset and lesser incidence of skin cancers | selenium toxicity ([4]; mouse, in vivo, po): no evidence of selenium toxicity | concentration of selenium in skin in areas of topical application ([4]; topical lotion versus comparable oral doses): greater than those of the experimental animals given comparable oral doses

(−)epigallo catechin gallate [EGCG]
hydrogen peroxide formation [5]: inhibits hydrogen peroxide formation

EGF: Epidermal growth factor is a 53 amino acid polypeptide which stimulates messenger RNA, DNA and protein synthesis (NSDSECPLSHDGYCLHDGVCMYIEALDKYACNCVVGYIGERCQYRDLKWWELR; Epidermal growth factor; UniProt P01133 971-1023, looked up)
healing process of wounds [6]: highly significant increase in the healing process | concentrations of wound DNA and collagen hydroxyproline [7]: increase both the concentrations of DNA associated with cutaneous injury and of collagen hydroxyproline | exposure time needed to yield a mitogenic signal [8]: about five hours
